Reference: patent US20210361565A1, “Oral Pharmaceutical Composition of an NK-1 Antagonist” (Intervet Inc., priority 2017, published 2021)

Assays:
[1] = tested on: apomorphine-induced emesis; assay: Apomorphine-induced emesis model; type: in vivo, dog; conditions: single oral dose 5 mg/kg; FIGS. 5A-5B
Excerpt: Apomorphine-induced emesis model is a well-established canine model to investigate antiemetic actions of new compounds and has been used in studies investigating new NK1 antagonists (Furukawa et al. Biol Pharm Bull 36:974-979, 2013) as well as Cerenia and other antiemetic drugs used in dogs (Sedlacek et al. J Vet Pharmacol Therap 31:533-537, 2008).
The canine model of apomorphine-induced emesis is a well-established model to investigate antiemetic actions of new compounds and has been used in studies investigating new NK1 antagonists (Furukawa et al. Biol Pharm Bull 36:974-979, 2013) as well as Cerenia and other antiemetic drugs used in dogs (Sedlacek et al. J Vet Pharmacol Therap 31:533-537, 2008). This model was used to evaluate the antiemetic activity of telmapitant in non-aqueous solution formulations and solid formulations (FIGS. 4A and 4B). The onset of action (FIGS. 4A and 4B) as well as the duration of activity (FIGS. 5A and 5B) were investigated after a single oral administration. Intravenous (IV) administration of apomorphine (emetogenic challenge 0.03 mg/kg) was delivered to all individuals 2 h, 4 h, 6 h, 8 h, 24 h, and 120 h (FIGS. 4A and 4B) or 1 d, 3 d, 5 d, 6 d, and 7 d (FIGS. 5A and 5B). […] Any emetic events (vomiting episodes and/or retches) following each emetogenic challenge were recorded for 20 min. […]

[2] = tested on: chemotherapy induced nausea and vomiting; conditions: humans; cited from earlier work
[3] = tested on: centrally acting emetogens (apomorphine IV) and peripherally acting emetogens (syrup of ipecac orally); conditions: dogs; cited from earlier work

Structure (SMILES): C[C@@H](OC[C@@]1(c2ccccc2)CC[C@]2(CN1)NC(=O)NC2=O)c1cc(C(F)(F)F)cc(C(F)(F)F)c1 [telmapitant, (5R,8S)-8-[[(1R)-1-[3,5-bis(trifluoromethyl)phenyl]ethoxy]methyl]-8-phenyl-1,3,9-triazaspiro[4.5]decane-2,4-dione]
- antiemetic data at 5 mg/kg versus 7 mg/kg [1]: not significantly different

Structure (SMILES): C[C@@H](OC[C@@]1(c2ccccc2)CC[C@]2(CCC(=O)N2)CN1)c1cc(C(F)(F)F)cc(C(F)(F)F)c1 [rolapitant]
- efficacy and safety for prevention of chemotherapy induced nausea and vomiting [2]: efficacious and safe

Structure (SMILES): COc1ccc(C(C)(C)C)cc1CN[C@H]1C2CCN(CC2)[C@H]1C(c1ccccc1)c1ccccc1 [maropitant]
- antiemetic effectiveness against emetogens [3]: effective
